The values that follow come from paper PMC9532562 (Acta Pharmaceutica Sinica. B, 2022).

Some targets named below: HDAC4 (Homo sapiens, UniProt P56524); HDAC9 (Homo sapiens, UniProt Q9UKV0); HDAC1 (Homo sapiens, UniProt Q13547); HDAC5 (Homo sapiens, UniProt Q9UQL6); HDAC3 (Homo sapiens, UniProt O15379); HDAC2 (Homo sapiens, UniProt Q92769).
Holding throughout (assay): HDAC enzyme inhibition assay
Type in all cases: biochemical

A further test addresses T1, HDAC10 (Homo sapiens, UniProt Q969S8).
T1 sequence (Q969S8 1-669): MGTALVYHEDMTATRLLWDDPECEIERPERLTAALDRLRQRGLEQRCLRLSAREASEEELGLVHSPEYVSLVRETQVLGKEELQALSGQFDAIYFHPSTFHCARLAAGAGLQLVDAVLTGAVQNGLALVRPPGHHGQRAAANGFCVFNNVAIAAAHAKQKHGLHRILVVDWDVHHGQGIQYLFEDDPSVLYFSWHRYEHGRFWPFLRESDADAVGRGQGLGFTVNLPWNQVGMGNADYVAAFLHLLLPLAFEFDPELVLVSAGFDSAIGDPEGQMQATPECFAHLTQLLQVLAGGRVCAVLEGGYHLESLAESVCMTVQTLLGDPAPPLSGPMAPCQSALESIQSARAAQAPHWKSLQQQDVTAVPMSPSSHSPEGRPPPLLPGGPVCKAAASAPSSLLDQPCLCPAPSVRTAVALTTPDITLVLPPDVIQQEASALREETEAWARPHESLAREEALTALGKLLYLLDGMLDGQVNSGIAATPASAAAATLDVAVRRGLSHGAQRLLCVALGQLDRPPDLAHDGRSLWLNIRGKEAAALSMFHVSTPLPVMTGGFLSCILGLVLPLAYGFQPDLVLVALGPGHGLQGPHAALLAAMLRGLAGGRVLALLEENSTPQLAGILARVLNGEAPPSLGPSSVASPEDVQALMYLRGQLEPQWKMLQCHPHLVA

The target of the next test is T2, HDAC6 (Homo sapiens, UniProt Q9UBN7).
T2 sequence (Q9UBN7 1-1215): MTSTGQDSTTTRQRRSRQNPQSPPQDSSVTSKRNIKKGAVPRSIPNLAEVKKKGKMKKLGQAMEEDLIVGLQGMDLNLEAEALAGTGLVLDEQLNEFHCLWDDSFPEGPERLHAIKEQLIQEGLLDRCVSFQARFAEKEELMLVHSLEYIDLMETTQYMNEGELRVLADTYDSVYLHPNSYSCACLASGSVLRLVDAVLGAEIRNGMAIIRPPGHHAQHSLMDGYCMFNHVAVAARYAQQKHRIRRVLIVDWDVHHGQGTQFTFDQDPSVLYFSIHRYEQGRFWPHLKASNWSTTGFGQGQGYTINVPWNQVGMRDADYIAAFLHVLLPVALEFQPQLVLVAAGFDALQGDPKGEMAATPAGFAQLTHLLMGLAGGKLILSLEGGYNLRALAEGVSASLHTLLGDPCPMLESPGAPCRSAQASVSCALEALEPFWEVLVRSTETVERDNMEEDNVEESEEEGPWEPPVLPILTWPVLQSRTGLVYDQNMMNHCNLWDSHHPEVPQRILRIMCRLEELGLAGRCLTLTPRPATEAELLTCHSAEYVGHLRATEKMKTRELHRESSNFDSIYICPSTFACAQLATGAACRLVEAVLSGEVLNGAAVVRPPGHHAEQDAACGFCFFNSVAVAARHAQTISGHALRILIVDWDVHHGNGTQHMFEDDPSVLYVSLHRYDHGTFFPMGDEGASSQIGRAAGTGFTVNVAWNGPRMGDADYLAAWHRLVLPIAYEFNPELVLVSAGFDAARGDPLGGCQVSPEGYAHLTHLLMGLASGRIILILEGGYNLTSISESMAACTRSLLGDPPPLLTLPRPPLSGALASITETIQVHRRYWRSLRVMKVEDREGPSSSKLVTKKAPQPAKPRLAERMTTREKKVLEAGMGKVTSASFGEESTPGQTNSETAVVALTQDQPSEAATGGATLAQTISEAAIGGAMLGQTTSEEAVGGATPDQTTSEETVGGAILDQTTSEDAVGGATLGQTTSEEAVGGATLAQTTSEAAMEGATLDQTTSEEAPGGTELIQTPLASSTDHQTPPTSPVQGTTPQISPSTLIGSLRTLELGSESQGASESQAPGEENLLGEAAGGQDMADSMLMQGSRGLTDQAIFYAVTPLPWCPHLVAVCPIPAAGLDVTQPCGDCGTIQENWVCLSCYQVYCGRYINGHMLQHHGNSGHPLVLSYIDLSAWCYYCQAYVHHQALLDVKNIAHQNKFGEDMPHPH

A further test has as its target T3, HDAC8 (Homo sapiens, UniProt Q9BY41).
T3 sequence (Q9BY41 1-377): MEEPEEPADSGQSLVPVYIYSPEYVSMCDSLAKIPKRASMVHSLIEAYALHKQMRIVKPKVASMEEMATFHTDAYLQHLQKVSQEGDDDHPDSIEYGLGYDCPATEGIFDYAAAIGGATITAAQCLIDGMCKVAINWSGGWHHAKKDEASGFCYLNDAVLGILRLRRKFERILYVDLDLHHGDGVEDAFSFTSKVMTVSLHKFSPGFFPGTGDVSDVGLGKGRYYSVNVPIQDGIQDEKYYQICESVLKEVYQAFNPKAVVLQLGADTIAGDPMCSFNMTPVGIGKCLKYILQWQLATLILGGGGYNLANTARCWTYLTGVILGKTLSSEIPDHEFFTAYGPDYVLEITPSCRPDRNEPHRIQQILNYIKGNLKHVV

Another test has as its target T4, HDAC11 (Homo sapiens, UniProt Q96DB2).
T4 sequence (Q96DB2 1-347): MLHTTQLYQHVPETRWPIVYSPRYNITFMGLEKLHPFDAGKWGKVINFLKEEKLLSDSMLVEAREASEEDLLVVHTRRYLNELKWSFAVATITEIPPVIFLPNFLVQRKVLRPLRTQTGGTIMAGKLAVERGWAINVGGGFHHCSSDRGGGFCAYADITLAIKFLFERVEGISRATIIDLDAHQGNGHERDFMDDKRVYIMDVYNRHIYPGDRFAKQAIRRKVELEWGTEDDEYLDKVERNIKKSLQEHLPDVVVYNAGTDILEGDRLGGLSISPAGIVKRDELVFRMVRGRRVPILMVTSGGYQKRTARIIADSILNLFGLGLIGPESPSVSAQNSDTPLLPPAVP

A value given as a limit tells only on which side of the number the result lay.

Chain of HDAC4 (P56524 whole entry): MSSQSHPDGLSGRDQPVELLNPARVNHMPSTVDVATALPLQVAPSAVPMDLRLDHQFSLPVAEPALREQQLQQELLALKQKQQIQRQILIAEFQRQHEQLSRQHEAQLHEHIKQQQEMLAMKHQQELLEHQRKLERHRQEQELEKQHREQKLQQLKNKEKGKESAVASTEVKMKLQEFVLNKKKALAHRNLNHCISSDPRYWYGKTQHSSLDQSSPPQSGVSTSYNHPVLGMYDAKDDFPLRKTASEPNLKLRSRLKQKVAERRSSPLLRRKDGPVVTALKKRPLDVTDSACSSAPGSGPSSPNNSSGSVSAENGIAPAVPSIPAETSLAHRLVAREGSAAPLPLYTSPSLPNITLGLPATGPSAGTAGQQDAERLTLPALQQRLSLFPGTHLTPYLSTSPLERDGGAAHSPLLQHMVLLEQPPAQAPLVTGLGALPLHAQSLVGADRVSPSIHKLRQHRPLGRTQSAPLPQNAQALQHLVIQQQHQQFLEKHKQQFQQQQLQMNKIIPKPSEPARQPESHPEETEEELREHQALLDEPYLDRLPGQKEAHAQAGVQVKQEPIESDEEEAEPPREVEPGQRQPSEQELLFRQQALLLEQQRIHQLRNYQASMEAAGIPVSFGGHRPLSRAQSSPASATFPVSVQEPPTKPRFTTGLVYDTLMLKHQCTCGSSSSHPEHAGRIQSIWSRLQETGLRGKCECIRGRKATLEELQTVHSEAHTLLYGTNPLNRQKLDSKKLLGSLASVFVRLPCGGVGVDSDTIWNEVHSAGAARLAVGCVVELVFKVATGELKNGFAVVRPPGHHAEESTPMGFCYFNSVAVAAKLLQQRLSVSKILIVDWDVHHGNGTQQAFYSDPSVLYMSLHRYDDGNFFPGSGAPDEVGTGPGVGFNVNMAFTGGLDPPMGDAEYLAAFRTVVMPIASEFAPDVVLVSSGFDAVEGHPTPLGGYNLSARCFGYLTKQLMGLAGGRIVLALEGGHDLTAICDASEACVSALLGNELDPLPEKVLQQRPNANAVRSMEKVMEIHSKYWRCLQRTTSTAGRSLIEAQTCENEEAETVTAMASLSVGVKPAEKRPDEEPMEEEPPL
Chain of HDAC5 (Q9UQL6 whole entry): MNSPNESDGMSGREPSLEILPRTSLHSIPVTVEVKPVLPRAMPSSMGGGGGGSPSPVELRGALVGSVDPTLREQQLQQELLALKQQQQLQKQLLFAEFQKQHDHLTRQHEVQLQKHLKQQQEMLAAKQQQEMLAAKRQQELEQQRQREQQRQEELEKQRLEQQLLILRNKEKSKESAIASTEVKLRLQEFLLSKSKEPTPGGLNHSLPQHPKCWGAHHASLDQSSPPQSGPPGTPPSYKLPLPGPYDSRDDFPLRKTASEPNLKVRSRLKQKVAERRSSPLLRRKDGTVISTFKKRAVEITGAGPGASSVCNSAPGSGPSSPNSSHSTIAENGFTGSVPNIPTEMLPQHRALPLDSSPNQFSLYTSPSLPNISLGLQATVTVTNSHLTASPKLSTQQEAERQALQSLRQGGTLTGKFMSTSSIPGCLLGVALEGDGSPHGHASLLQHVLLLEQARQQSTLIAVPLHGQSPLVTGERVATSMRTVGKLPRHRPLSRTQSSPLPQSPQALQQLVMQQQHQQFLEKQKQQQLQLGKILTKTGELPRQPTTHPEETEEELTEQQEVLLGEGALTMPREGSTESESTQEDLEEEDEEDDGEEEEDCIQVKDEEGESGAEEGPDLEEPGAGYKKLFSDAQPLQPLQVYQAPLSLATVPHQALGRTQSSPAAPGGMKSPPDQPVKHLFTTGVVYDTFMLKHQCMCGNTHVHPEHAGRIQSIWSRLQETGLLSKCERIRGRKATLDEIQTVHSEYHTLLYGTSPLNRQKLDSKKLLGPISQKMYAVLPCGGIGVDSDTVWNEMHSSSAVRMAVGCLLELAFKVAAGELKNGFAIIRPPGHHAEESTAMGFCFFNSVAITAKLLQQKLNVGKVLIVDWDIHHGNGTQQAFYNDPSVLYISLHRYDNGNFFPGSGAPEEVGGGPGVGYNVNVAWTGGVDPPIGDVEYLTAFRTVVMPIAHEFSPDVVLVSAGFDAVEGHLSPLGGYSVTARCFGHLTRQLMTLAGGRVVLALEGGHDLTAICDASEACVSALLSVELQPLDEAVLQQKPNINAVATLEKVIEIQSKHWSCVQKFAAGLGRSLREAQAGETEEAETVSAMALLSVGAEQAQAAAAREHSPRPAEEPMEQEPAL
Chain of HDAC9 (Q9UKV0 whole entry): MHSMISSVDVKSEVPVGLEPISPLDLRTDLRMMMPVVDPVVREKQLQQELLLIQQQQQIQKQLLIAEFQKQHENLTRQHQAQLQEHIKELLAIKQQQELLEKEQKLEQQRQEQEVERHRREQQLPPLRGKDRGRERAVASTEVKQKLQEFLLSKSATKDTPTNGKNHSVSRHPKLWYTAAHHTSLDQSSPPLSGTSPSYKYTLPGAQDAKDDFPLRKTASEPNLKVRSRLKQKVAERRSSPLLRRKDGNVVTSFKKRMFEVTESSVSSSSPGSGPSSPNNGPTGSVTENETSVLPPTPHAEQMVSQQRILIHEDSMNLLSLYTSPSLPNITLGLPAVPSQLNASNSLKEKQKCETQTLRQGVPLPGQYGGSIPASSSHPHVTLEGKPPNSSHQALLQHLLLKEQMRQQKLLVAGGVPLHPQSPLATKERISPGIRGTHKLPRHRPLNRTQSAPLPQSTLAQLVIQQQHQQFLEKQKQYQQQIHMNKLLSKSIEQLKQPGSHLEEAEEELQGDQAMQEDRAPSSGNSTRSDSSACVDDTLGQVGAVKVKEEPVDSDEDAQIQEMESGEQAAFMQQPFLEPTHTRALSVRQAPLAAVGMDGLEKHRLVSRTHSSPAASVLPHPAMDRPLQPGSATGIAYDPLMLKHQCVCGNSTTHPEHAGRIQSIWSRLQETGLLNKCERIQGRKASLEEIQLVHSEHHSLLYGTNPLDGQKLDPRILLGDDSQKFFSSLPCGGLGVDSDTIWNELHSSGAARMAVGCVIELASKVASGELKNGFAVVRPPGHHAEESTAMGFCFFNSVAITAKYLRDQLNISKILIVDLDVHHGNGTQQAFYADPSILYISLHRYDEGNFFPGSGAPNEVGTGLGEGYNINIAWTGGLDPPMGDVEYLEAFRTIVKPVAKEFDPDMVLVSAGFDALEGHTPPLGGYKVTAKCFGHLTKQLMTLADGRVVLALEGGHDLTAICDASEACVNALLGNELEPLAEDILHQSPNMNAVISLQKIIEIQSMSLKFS
Chain of HDAC3 (O15379 whole entry): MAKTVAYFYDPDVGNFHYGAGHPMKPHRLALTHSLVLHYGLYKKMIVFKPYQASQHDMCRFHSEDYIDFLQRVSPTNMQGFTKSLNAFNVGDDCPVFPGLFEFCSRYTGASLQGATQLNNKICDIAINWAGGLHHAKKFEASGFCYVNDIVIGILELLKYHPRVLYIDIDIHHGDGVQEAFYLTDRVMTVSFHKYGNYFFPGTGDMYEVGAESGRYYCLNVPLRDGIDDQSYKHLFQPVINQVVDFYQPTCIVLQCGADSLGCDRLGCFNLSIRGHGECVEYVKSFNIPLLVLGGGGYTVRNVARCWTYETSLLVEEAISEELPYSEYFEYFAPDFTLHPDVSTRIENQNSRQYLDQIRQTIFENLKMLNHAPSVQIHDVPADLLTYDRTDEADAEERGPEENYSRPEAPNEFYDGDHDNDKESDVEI
Chain of HDAC3 (Q9Y618 395-489 partner limits assumed): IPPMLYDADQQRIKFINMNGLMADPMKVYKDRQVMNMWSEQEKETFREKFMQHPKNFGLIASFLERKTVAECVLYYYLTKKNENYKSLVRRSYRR
Chain of HDAC2 (Q92769 whole entry): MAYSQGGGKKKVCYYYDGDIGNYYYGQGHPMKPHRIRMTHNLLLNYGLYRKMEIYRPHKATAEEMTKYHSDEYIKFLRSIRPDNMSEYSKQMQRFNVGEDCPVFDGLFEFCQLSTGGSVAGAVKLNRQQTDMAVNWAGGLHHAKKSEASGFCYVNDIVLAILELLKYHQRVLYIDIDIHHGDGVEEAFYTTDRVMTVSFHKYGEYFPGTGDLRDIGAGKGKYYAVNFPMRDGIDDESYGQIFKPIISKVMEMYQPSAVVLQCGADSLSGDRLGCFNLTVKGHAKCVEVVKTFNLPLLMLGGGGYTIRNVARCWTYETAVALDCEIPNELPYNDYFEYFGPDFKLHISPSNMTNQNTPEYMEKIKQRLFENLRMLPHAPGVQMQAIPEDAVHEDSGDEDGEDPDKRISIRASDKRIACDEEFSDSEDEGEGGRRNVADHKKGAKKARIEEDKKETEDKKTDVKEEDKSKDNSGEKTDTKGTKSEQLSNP
Chain of HDAC1 (Q13547 whole entry): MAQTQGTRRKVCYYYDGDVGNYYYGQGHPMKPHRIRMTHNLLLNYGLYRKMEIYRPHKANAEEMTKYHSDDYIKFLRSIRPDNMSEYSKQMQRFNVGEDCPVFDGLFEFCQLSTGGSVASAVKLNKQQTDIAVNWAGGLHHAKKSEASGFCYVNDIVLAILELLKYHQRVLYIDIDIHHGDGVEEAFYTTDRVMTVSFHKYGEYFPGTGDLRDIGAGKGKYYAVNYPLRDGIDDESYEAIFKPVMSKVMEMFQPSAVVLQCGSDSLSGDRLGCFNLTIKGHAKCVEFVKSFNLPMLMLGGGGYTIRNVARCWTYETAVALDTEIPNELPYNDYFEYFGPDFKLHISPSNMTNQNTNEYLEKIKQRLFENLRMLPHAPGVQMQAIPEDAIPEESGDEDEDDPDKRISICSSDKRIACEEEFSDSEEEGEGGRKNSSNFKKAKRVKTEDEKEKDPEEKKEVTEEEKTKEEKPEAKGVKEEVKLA

One may read the IC50 as the concentration that inhibits the measured activity by half. In the case of `COc1cc(CN2CCCCc3ccccc32)ccc1C(=O)NO` [15b, N-Hydroxy2-methoxy-4-((2,3,4,5-tetrahydro-1H-benzo[b]azepin-1-yl)methyl)benzamide], the IC50 against HDAC10 is greater than 10 µM; against HDAC4 it was greater than 10 µM; against HDAC9, greater than 10 µM; against HDAC6, 4.16 µM; on HDAC1 it was greater than 10 µM; on HDAC5 it was greater than 10 µM. The IC50 is greater than 10 µM against HDAC3, greater than 10 µM on HDAC2, 2.06 µM against HDAC8 and 3.52 µM against HDAC11.
